Like-named read-outs stand apart in the source and are kept apart here.
Key:
Assay type in all cases: cell-based, human
[1] = system: breast tumor cells MDA-MB-231; experiment: MTT cell viability assay; settings: for IC50: Homo sapiens; for cell viability: FIG. 13
Procedure: The breast tumor cells (MDA-MB-231, MDA-MB-435, MDA-MB-453, MDA-MB-468 and MCF-7) were commercially obtained from the bioresource collection and research center (BCRC), and were cultured in a 10% FBS-DMEM culture medium (i.e., a DMEM culture medium including 10% fetal bovine serum (FBS)). The human breast cell MCF-10A was cultured in a 5% FBS-DMEM culture medium (including F12, insulin, hydrocortisol and epidermal growth factor). An environment of 5% CO2 was kept in the incubator at a constant temperature of 37° C. When a certain number of cells were generated in culture, the culture medium was removed after being centrifuged for 10 min at a rate of 900 rpm. The culture medium was replaced in 24 h before the experiment, and the number of cells was counted by a hemocytometer.
The cell viability was determined by a method of […] (MTT assay). The test method for assaying cell viability refers to steps provided by Parada-Turska et al.
The breast tumor cells MDA-MB-231 were inoculated in a 24-well plate (2.5×10^5 cells/well), and the next day after cells were adhered to the wall of the plate, the cells were washed with PBS. 1% FBS-DMEM culture medium was then added so as to synchronize cells. The next day compound II having different concentrations were added into the wells, and the cells were subsequently cultured in an atmosphere of 5% CO2 at 37° C. for 24 h. The cells were washed with PBS once, and 400 μl MTT agent was added in each well so as to react for 4 h. Then 400 μl 10% SDS was added in each well so as to react for 12 h. 200 μl supernatant was taken from the well and then added into a 96-well microplate, so as to measure the absorbance at 570 nm.
FIG. 13 separately illustrates the viabilities of cells treated with the compound II in different doses, and whether the viabilities of cells were recovered when the cells were treated with both the compound II and the antioxidant NAC, so as to illustrate the effect of increased reactive oxygen species caused by the compound II on the tumor cell proliferation. The test method for measuring the cell viability refers to steps described in test example 2-1. The breast tumor cells MDA-MD-231 were treated with the compound II of 0, 2, 5, 7.5, 10 and 15 μM for 24 h, and then the effect of the compound II on viability of breast tumor cells MDA-MD-231 was observed. FIG. 13 is a quantitative diagram, the data result was represented by mean±SD values, where n=3.

[2] = system: breast tumor cells MDA-MB-231; experiment: transwell invasion assay; settings: 0.5, 1 and 2 μM, 20 h, with increasing concentration
Procedure: (§1) In the transwell invasion assay, the Matrigel which was a component of ECM was used to imitate the environment between cells. When the cells in a BD Matrigel™ Invasion Chamber were stimulated by growth factors in the Matrigel matrix, the cells secreted some matrix proteolytic enzymes to degrade the Matrigel, so as to facilitate invasion of cells. If the cells had strong invasion capability, the cells can be observed on the filter membrane after staining. In FIG. 15, 800 μl 10% FBS-DMEM was added into the transwell as a chemoattractant, and then 500 μl cells (1×10^5) were planted in the transwell. DMEM culture medium included no FBS and the compound II of 0.5, 1 and 2 μM. The breast tumor cells MDA-MB-231 were then cultured at an atmosphere of 5% CO2 in an incubator at 37° C. for 20 h. Subsequently the cells were stained with Giemsa for 15 min, and observed by taking photographs at a 200× field of an optical microscope. In the test each time each group was represented by a medium value of three repeat transwells. In FIGS. 16A, 16B and 17, the breast tumor cells MDA-MB-231 were replaced by the breast tumor cells MDA-MB-468, the breast tumor cells MDA-MB-435 and the human normal breast cells MCF-10A, respectively. Furthermore, in FIGS. 16A and 16B, the compound II was replaced by the compound I of 0.5, 1 and 2 μM and the compound I of 2.5, 5 and 7.5 μM. In FIG. 17, the compound II was replaced by compound I of 2 μM, TNF-α/TGF-β of 10 ng/ml, and compound I of 2 μM and TNF-α/TGF-β of 10 ng/ml. In the quantitative method of cell migration test, steps included randomly choosing 9 fields at the lower surface of the transwell membrane, counting the total cell number in each field; regarding the medium value of cell number in the 9 fields as an index of chemotaxis migration of breast tumor cells in each transwell, and each group of each test was represented by the medium value of 3 repeat transwells.

[3] = system: breast tumor cells MDA-MB-468; experiment: transwell invasion assay; settings: 0.5, 1 and 2 μM, with increasing concentration
Procedure: as §1

[4] = system: breast tumor cells MDA-MB-435; experiment: transwell invasion assay; settings: 2.5, 5 and 7.5 μM, with increasing concentration
Procedure: as §1

| IC50 ([1]; MDA-MB-231, 0-40 μM for 24 h, FIG. 1A, read-out: IC50 for inhibiting the MDA-MB-231) [µM] | IC50 ([1]; viability, MDA-MB-231 cell strain, Table 1, read-out: IC50) [µM] | SMILES | cell viability ([1]; MDA-MB-231, 2-15 μM, 24 h) | cell viability ([1]; MDA-MB-231, with antioxidant NAC) | migration of breast tumor cells MDA-MB-231 (transwell) [2] | migration of breast tumor cells MDA-MB-468 (transwell) [3] | migration of breast tumor cells MDA-MB-435 (transwell) [4] |
| --- | --- | --- | --- | --- | --- | --- | --- |
| ~6.5 | 7.51 | COC1=C(OC)C(=O)C(C)=C(C)C1=O [compound II] | significantly decreased | not influenced | significantly reduced |  |  |
|  |  | COC1=C(OC)C(=O)C(C)=CC1=O [compound I] |  |  |  | significantly reduced | also significantly reduced |
